Data from article PMC4139342, “Pharmacokinetics-Pharmacodynamics Analysis of Bicyclic 4-Nitroimidazole Analogs in a Murine Model of Tuberculosis” (PLoS ONE, 2014).
In brackets after ≈: the same amount, converted by molar mass. Read-outs that look alike come from different tables or passages of the source.

Tests used:
[1] = In vivo plasma PK after intravenous dosing; conditions: female, CD-1, mouse, plasma, iv, T1/2 (i.v), mice
in vivo [2] = conditions: female, CD-1, mouse, po
physchem [3] = conditions: pH 6.8, aqueous buffer, thermodynamic from solid
[4] = In vivo plasma PK after oral dosing in CM-2 formulation; conditions: female, CD-1, mouse, plasma, po
in vitro [5] = conditions: human, Caco-2
[6] = Cytotoxicity against THP1 macrophage cell lines; assay type: cell-based; conditions: human
[7] = female, CD-1, mouse, in vivo, po
Mtb H37Rv = experiment: In vivo mouse efficacy, established murine TB model; design: species or system Balb/c mice; conditions: for Mean log lung CFU ± SEM / log reduction at 25 mg/kg / log reduction at 100 mg/kg: 5 animals; for Efficacy compared with PA-824, in words: significance at P<0.05; for Dose dependence of efficacy, in words: 25 versus 100 mg/kg oral daily for 4 weeks; for log reduction at 25 mg/kg / log reduction at 100 mg/kg: Mycobacterium tuberculosis, H37RV, po, 672 h, read-out: Mean log lung CFU reduction ± SEM compared to untreated controls
Protocol: In vivo mouse efficacy studies were determined after intranasal infection of Balb/c mice with 10^3 cfu Mtb H37Rv. Treatment was initiated 4 weeks after infection. Compounds were orally administered in CM-2 formulation for 4 weeks daily. Bacterial loads were determined at 2 and 4 weeks post treatment. Statistical analysis was done by a one-way analysis of variance, followed by a multiple comparison analysis of variance by a one-way Tukey test (GraphPad Prism, version 5.02, San Diago, California USA, www.graphpad.com). Differences were considered statistically significant at the 95% level of confidence.

[8] = system: M. tuberculosis (Mtb) (H37Rv, ATCC 27294); experiment: microbe, parasite or virus in culture; assay type: cell-based; conditions: Mycobacterium tuberculosis
[9] = In vivo lung PK after oral dosing; conditions: female, CD-1, mouse
[10] = female, CD-1, mouse, in vivo, po, 25 mg/kg
in vivo [11] = conditions: female, CD-1, mouse, iv; for clearance: i.v. CL
in vitro [12] = conditions: mouse, plasma
in vivo [13] = conditions: female, CD-1, mouse, po; remark: listed apart in the source
physchem [14] = experiment: physchem
[15] = 5 mg/kg, i.v. dosing at 5 mg/kg
[16] = 25 mg/kg, Lung to Plasma ratio AUC24
[17] = 25 mg/kg, Lung to Plasma ratio Cmax
[18] = 25 mg/kg oral daily for 4 weeks
[19] = 100 mg/kg oral daily for 4 weeks

Row | Structure (SMILES) | half-life [1, 15] [min] | Tmax (in vivo [2]; 25 mg/kg) [min] | Kp (in vivo [2]; [16]) | Kp (in vivo [2]; [17]) | PAMPA %FA [%] | PAMPA Log Pe | solubility (physchem [3]) [µg/mL] | half-life ([4]; 25 mg/kg) [min] | CC50 [6] [µg/mL] | Lung AUC24 ([7]; 25 mg/kg) [µg·h/g] | Lung Cmax ([7]; 25 mg/kg) [µg/g] | Mean log lung CFU ± SEM (Mtb H37Rv; [18]) [log CFU] | Efficacy compared with PA-824, in words (Mtb H37Rv; [18]) | log reduction at 25 mg/kg (Mtb H37Rv; [18]) | MIC99 [8] [µg/mL] | half-life ([9]; 25 mg/kg) [min] | Vd (in vivo [11]; 5 mg/kg) [L/kg] | clearance (in vivo [11]; 5 mg/kg) [mL/min/kg] | fraction unbound (in vitro [12]) | logP (physchem [14]) | other results
1 | CC[C@H]1Oc2nc([N+](=O)[O-])cn2C[C@@H]1NCc1ccc(OC(F)(F)F)cc1 [NI-182] | 168 | 30 | 3.3 | 3.3 | 99 | –3.8 cm/sec | 32 (≈ 82.8 µM) | 120 | > 10 | 73.2 | 11.4 | 4.84±0.14 | comparable efficacy to PA-824 | 1.23 to 1.56 | 0.02 (≈ 0.0518 µM) | 114 | 3 | 15.2 | 0.087 | 3.05 | Papp A→B (in vitro [5]): 18.3 ×10⁻⁶ cm/s; Papp B→A (in vitro [5]): 13.9 ×10⁻⁶ cm/s; efflux ratio (in vitro [5]): 0.8; Mean log lung CFU ± SEM (Mtb H37Rv; [19]): 4.81±0.18 log CFU; Efficacy compared with PA-824, in words (Mtb H37Rv; [19]): significantly (P<0.05) less efficacious than PA-824; Dose dependence of efficacy, in words (Mtb H37Rv): no dose-dependent increase in bactericidal activity; log reduction at 100 mg/kg (Mtb H37Rv; [19]): 1.26 ± 0.18; Plasma free fCmax [10]: 0.3 µg/mL; AUC (in vivo [13]; 25 mg/kg): 22500 ng·h/mL; Cmax (in vivo [13]; 25 mg/kg): 3500 ng/mL; Tmax (in vivo [13]; 25 mg/kg): 30 min; bioavailability (in vivo [13]; 25 mg/kg): 82%
2 | CC[C@@H]1Oc2nc([N+](=O)[O-])cn2C[C@@H]1NCc1ccc(OC(F)(F)F)cc1 [NI-269] | 126 | 18 | 1.7 | 1.9 | 99 | –3.7 cm/sec | 12 (≈ 31.1 µM) | 228 | > 10 | 27.5 | 5.4 |  |  |  | 0.03 (≈ 0.0777 µM) | 162 | 2.6 | 19.7 |  | 3.15 | AUC (in vivo [13]; 25 mg/kg): 16000 ng·h/mL; Cmax (in vivo [13]; 25 mg/kg): 2800 ng/mL; Tmax (in vivo [13]; 25 mg/kg): 18 min; bioavailability (in vivo [13]; 25 mg/kg): 88%
3 | CC[C@H]1Oc2nc([N+](=O)[O-])cn2C[C@@H]1NCc1ccc(-c2ccc(OC(F)(F)F)cc2)cc1 [NI-297] | 402 | 480 | 2.4 | 2.7 | 97 | –4.1 cm/sec | < 2 | 294 | > 10 | 233.4 | 16.3 | 4.51±0.11 | comparable efficacy to PA-824 | 1.23 to 1.56 | 0.02 (≈ 0.0432 µM) | 276 | 2.6 | 5 | 0.018 | 6 | Plasma free fCmax [10]: 0.1 µg/mL; AUC (in vivo [13]; 25 mg/kg): 99100 ng·h/mL; Cmax (in vivo [13]; 25 mg/kg): 6000 ng/mL; Tmax (in vivo [13]; 25 mg/kg): 480 min; bioavailability (in vivo [13]; 25 mg/kg): 100%
4 | O=C(CO[C@@H]1COc2nc([N+](=O)[O-])cn2C1)N1CCN(c2ccc(OC(F)(F)F)cc2)CC1 [NI-622] |  |  |  |  | 31 | –5.3 cm/sec | 28.2 (≈ 59.8 µM) |  | > 10 |  |  | 5.77±0.08 | significantly (P<0.05) less efficacious than PA-824 | 0.48 to 0.89 | 0.18 (≈ 0.382 µM) |  |  |  | 0.03 | 2.9 | half-life ([1]; 10 mg/kg, i.v. dosing at 10 mg/kg): 108 min; Kp (in vivo [2]; 50 mg/kg, Lung to Plasma ratio AUC24): 0.7; Kp (in vivo [2]; 50 mg/kg, Lung to Plasma ratio Cmax): 0.7; half-life ([4]; 50 mg/kg): 126 min; Papp A→B (in vitro [5]): 9.5 ×10⁻⁶ cm/s; Papp B→A (in vitro [5]): 12.4 ×10⁻⁶ cm/s; efflux ratio (in vitro [5]): 1.3; Lung AUC24 ([7]; 50 mg/kg): 71.1 µg·h/g; Lung Cmax ([7]; 50 mg/kg): 10.2 µg/g; Mean log lung CFU ± SEM (Mtb H37Rv; [19]): 5.85±0.11 log CFU; Efficacy compared with PA-824, in words (Mtb H37Rv; [19]): significantly (P<0.05) less efficacious than PA-824; Dose dependence of efficacy, in words (Mtb H37Rv): no dose-dependent increase in bactericidal activity; log reduction at 100 mg/kg (Mtb H37Rv; [19]): 0.81 ± 0.11; half-life ([9]; 50 mg/kg): 108 min; Vd (in vivo [11]; 10 mg/kg): 1.8 L/kg; clearance (in vivo [11]; 10 mg/kg): 14.7 mL/min/kg; AUC (in vivo [13]; 50 mg/kg): 108000 ng·h/mL; Cmax (in vivo [13]; 50 mg/kg): 14800 ng/mL; bioavailability (in vivo [13]; 50 mg/kg): 100%
5 | COc1ccc(C[C@H](N)C(=O)N[C@H]2[C@@H](O)[C@H](n3cnc4c(N(C)C)ncnc43)O[C@@H]2CO)cc1 [Puromycin, reference compound] |  |  |  |  |  |  |  |  |  |  |  |  |  |  |  |  |  |  |  |  | CC50 ([6]; THP1 macrophage cell lines, read-out: Cytotoxicity CC50): 1.4 µg/mL (≈ 2.97 µM)
